Where two headings read alike, the source gives them in different places.
Target: T1, pY641-STAT6 in PBMC (Homo sapiens, UniProt P42226)
T1 construct: Cryopreserved Peripheral Blood Mononuclear Cells (PBMC) are from AllCells; host or cells: cryopreserved PBMC
T1 sequence (P42226 1-847): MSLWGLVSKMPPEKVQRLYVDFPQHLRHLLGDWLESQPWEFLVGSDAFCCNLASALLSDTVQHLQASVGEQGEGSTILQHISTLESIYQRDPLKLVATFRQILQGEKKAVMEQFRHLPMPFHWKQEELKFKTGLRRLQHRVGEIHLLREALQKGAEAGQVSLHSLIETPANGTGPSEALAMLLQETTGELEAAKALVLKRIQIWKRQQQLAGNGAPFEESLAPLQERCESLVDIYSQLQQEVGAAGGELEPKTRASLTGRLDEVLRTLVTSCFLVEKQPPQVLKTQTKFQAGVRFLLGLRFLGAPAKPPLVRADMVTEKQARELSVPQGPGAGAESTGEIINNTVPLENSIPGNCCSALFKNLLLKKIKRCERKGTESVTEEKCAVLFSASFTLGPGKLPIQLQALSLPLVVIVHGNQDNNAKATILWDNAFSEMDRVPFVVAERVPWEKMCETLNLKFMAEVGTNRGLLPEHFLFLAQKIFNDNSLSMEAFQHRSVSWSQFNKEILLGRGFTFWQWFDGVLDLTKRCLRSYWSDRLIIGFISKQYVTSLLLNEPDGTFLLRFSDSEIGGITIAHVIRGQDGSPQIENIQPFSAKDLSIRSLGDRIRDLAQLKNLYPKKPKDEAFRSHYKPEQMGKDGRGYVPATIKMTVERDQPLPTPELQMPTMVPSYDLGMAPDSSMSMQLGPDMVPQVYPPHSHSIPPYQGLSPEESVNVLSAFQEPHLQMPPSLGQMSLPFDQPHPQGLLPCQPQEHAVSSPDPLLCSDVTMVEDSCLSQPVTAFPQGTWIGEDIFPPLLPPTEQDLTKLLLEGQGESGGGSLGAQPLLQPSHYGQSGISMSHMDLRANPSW
Experiment: MSD-pSTAT-PBMC Assay (pSTAT6, IL-4 stimulated)
Format: cell-based
Conditions: compound 3 hrs, then 1 ng/mL IL-4 for 10 min, Table 115
Summary of the method: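 Cells are preincubated with compound for 3 hrs, then stimulated for 10 min, IL-4 at 1 ng/mL driving STAT6 phosphorylation and IL-6 at 10 ng/mL driving STAT3. Phospho-STAT in lysates is quantified by MSD immunoassay, and IC50 is fitted after subtracting unstimulated wells.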

## CCCOC(=O)[C@H](C)NP(=O)(Oc1ccccc1)[C@@H](F)c1ccc2sc(C(=O)N[C@H]3CCCC[C@H]4CC[C@@H](C(=O)N5C(=O)N(c6cncc(OC)c6)C(=O)C56CC6)N4C3=O)cc2c1 (stereo partly drawn) [Compound 331, propyl (((R)-fluoro(2-(((3S,6S,10aS)-3-(6-(5-methoxypyridin-3-yl)-5,7-dioxo-4,6-diazaspiro[2.4]heptane-4-carbonyl)-5-oxodecahydropyrrolo [1,2-a]azocin-6-yl)carbamoyl)benzo [b]thiophen-5-yl)methyl)(phenoxy)phosphoryl)-L-alaninate]
STAT6, PBMC
  IC50: 1000 to 3000 nM

## CCCOC(=O)[C@H](C)NP(=O)(Oc1ccccc1)[C@@H](F)c1ccc2sc(C(=O)N[C@H]3CCCC[C@H]4CC[C@@H](C(=O)N5C(=O)N(c6ccc(C(F)F)nc6)C(=O)C56CC6)N4C3=O)cc2c1 (stereo partly drawn) [Compound 332, propyl (((R)-(2-(((3S,6S,10aS)-3-(6-(6-(difluoromethyl)pyridin-3-yl)-5,7-dioxo-4,6-diazaspiro[2.4]heptane-4-carbonyl)-5-oxodecahydropyrrolo [1,2-a]azocin-6-yl)carbamoyl)benzo [b]thiophen-5-yl)fluoromethyl) (phenoxy)phosphoryl)-L-alaninate]
STAT6, PBMC
  IC50: > 3000 nM

## CCCOC(=O)[C@H](C)NP(=O)(Oc1ccccc1)[C@@H](F)c1ccc2sc(C(=O)N[C@H]3CCCC[C@H]4CC[C@@H](C(=O)N5C(=O)N(c6cncc(C(F)F)c6)C(=O)C56CC6)N4C3=O)cc2c1 (stereo partly drawn) [Compound 333, propyl (((R)-(2-(((3S,6S,10aS)-3-(6-(5-(difluoromethyl)pyridin-3-yl)-5,7-dioxo-4,6-diazaspiro[2.4]heptane-4-carbonyl)-5-oxodecahydropyrrolo [1,2-a]azocin-6-yl)carbamoyl)benzo [b]thiophen-5-yl)fluoromethyl) (phenoxy)phosphoryl)-L-alaninate]
STAT6, PBMC
  IC50: > 3000 nM

## CCCOC(=O)[C@H](C)NP(=O)(Oc1ccccc1)[C@@H](F)c1ccc2sc(C(=O)N[C@H]3CCCC[C@H]4CC[C@@H](C(=O)N5C(=O)N(c6cnccc6C)C(=O)C56CC6)N4C3=O)cc2c1 (stereo partly drawn) [Compound 334, propyl (((R)-fluoro(2-(((3S,6S,10aS)-3-(6-(4-methylpyridin-3-yl)-5,7-dioxo-4,6-diazaspiro[2.4]heptane-4-carbonyl)-5-oxodecahydropyrrolo [1,2-a]azocin-6-yl)carbamoyl)benzo [b]thiophen-5-yl)methyl)(phenoxy)phosphoryl)-L-alaninate]
STAT6, PBMC
  IC50: < 100 nM

## CCCOC(=O)[C@H](C)NP(=O)(Oc1ccccc1)[C@@H](F)c1ccc2sc(C(=O)N[C@H]3CCCC[C@H]4CC[C@@H](C(=O)N5C[C@H](c6cccc(Cl)c6)[C@@H](C#N)C56CC6)N4C3=O)cc2c1 (some centres unmarked) [Compound 344]
PBMC, read-out: STAT6
  IC50: < 100 nM

## CCCOC(=O)[C@H](C)NP(=O)(Oc1ccccc1)[C@@H](F)c1ccc2sc(C(=O)N[C@H]3CCCC[C@H]4CC[C@@H](C(=O)N5C[C@H](c6cccc(Cl)c6)[C@@H](C#N)C56CC6)N4C3=O)cc2c1 (some centres unmarked) [Compound 345]
PBMC, read-out: STAT6
  IC50: < 100 nM

## CCCOC(=O)[C@H](C)NP(=O)(Oc1ccccc1)[C@@H](F)c1ccc2sc(C(=O)N[C@H]3CCC[C@H]4CC[C@@H](C(=O)N5C[C@@H](c6ccn(C)c(=O)c6)CC56CC6)N4C3=O)cc2c1 (stereo partly drawn) [Compound 346, propyl (((R)-fluoro(2-(((3S,6S,9aS)-3-((R)-6-(1-methyl-2-oxo-1,2-dihydropyridin-4-yl)-4-azaspiro[2.4]heptane-4-carbonyl)-5-oxooctahydro-1H-pyrrolo[1,2-a]azepin-6-yl)carbamoyl)benzo [b]thiophen-5-yl)methyl)(phenoxy)phosphoryl)-L-alaninate]
STAT6, PBMC
  IC50: < 100 nM

## CCCOC(=O)[C@H](C)NP(=O)(Oc1ccccc1)[C@H](F)c1ccc2ccc(C(=O)N[C@H]3CCCC[C@H]4CC[C@@H](C(=O)N5C[C@H](c6ccccc6)[C@@H](C#N)C56CC6)N4C3=O)cc2c1 (stereo partly drawn) [Compound 347, propyl (((S)-(7-(((3S,6S,10aS)-3-((6S,7R)-7-cyano-6-phenyl-4-azaspiro[2.4]heptane-4-carbonyl)-5-oxodecahydropyrrolo [1,2-a]azocin-6-yl)carbamoyl)naphthalen-2-yl)fluoromethyl) (phenoxy)phosphoryl)-L-alaninate]
STAT6, PBMC
  IC50: < 100 nM

Reference: US20250215029A1 (Recludix Pharma, Inc., priority 2022, published 2025)
